Laboratory results: ChEMBL document CHEMBL5500389, “Discovery of the Selective and Orally Available Galectin-1 Inhibitor GB1908 as a Potential Treatment for Lung Cancer” (J Med Chem, 2024)
The source made the active and inactive calls. The calls are words filed in the database; no cut-off is given here.

How the values were obtained:
Galectin-1 [1] = target: T1, Galectin-1 (Homo sapiens, UniProt P09382); experiment: Binding affinity to human galectin-1 assessed as dissociation constant by fluorescein probe based fluorescence polarization assay
[2] = Apparent permeability across apical to basal side in human Caco-2 cells at 10 uM incubated for 90 mins by LC-MS/MS analysis
[3] = Apparent permeability across basal to apical side in human Caco-2 cells at 10 uM incubated for 90 mins by LC-MS/MS analysis
[4] = Efflux ratio of apparent permeability across apical to basal side over basal to apical side in human Caco-2 cells at 10 uM incubated for 90 mins by LC-MS/MS analysis
Galectin-1 [5] = target: T2, Galectin-1 (Mus musculus, UniProt P16045); experiment: Binding affinity to mouse galectin-1 assessed as dissociation constant by fluorescein probe based fluorescence polarization assay
[6] = Stability in human hepatocytes assessed as hepatic intrinsic clearance at 2 uM measured per million cells for 15 to 120 mins by LC-MS/MS analysis; type: ADME, cell-based, Hepatocyte; settings: time 15-120 min, read-out: CLH
[7] = Stability in mouse hepatocytes assessed as hepatic intrinsic clearance at 2 uM measured per million cells for 15 to 120 mins by LC-MS/MS analysis; type: ADME, cell-based, Hepatocyte; settings: time 15-120 min, read-out: CLH
[8] = Unbound fraction in human plasma at 1 uM incubated for 5 hrs by equilibrium dialysis method; type: ADME, cell-free
physchem = settings: octanol/potassium phosphate buffer, pH 7.4
[9] = Unbound fraction in mouse plasma at 1 uM incubated for 5 hrs by equilibrium dialysis method; type: ADME, cell-free
Galectin-3 [10] = target: T3, Galectin-3 (Homo sapiens, UniProt P17931); experiment: Inhibition of human galectin-3 by competitive fluorescence polarization assay
Galectin-4 [11] = target: T4, Galectin-4 (Homo sapiens, UniProt P56470); experiment: Inhibition of N-terminal human galectin-4 by competitive fluorescence polarization assay
T4 sequence (P56470 whole entry): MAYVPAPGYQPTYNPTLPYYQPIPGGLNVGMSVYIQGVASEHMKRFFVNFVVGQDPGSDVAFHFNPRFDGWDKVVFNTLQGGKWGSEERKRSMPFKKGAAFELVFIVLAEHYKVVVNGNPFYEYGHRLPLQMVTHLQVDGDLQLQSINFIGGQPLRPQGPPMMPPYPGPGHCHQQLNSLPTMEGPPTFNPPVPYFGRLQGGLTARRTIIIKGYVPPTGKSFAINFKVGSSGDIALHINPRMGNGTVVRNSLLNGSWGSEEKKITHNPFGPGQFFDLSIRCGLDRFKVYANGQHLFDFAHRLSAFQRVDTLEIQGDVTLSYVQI

Galectin-4 [12] = target: T4, Galectin-4; experiment: Inhibition of C-terminal human galectin-4 by competitive fluorescence polarization assay
Galectin-7 = Galectin-7 (Homo sapiens, UniProt P47929); experiment: Inhibition of human galectin-7 by competitive fluorescence polarization assay
Galectin-8 [13] = target: T5, Galectin-8 (Homo sapiens, UniProt O00214); experiment: Inhibition of N-terminal human galectin-8 by competitive fluorescence polarization assay
T5 sequence (O00214 whole entry): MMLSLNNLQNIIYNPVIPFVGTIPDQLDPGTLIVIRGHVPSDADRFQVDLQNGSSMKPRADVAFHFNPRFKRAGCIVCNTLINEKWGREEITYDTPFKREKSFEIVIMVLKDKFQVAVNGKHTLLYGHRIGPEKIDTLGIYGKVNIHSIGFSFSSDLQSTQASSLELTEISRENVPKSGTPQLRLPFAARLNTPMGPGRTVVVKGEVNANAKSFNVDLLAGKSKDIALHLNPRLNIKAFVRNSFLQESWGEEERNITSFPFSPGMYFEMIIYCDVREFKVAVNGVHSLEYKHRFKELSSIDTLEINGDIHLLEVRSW

Galectin-8 [14] = target: T5, Galectin-8; experiment: Inhibition of C-terminal human galectin-8 by competitive fluorescence polarization assay
Galectin-9 [15] = target: T6, Galectin-9 (Homo sapiens, UniProt O00182); experiment: Inhibition of N-terminal human galectin-9 by competitive fluorescence polarization assay
Galectin-9 [16] = target: T6, Galectin-9; experiment: Inhibition of C-terminal human galectin-9 by competitive fluorescence polarization assay
Galectin-1 [17] = target: T1, Galectin-1; experiment: Binding affinity to CM3 chip-immobilized full-length human galectin-1 assessed as dissociation constant by SPR analysis
Galectin-3 [18] = target: T3, Galectin-3; experiment: Binding affinity to CM3 chip-immobilized full-length human galectin-3 assessed as dissociation constant by SPR analysis
Galectin-1 [19] = target: T2, Galectin-1; experiment: Binding affinity to CM3 chip-immobilized full-length mouse galectin-1 assessed as dissociation constant by SPR analysis
Galectin-3 [20] = target: T7, Galectin-3 (Mus musculus, UniProt P16110); experiment: Binding affinity to CM3 chip-immobilized full-length mouse galectin-3 assessed as dissociation constant by SPR analysis
Galectin-3 [21] = target: T7, Galectin-3; experiment: Binding affinity to mouse galectin-3 assessed as dissociation constant by fluorescein probe based fluorescence polarization assay
A549 = experiment: Cytotoxicity against human A549 cells assessed as reduction in cell viability at >90 uM by MTT assay relative to control; type: functional
Jurkat [22] = experiment: Inhibition of apoptosis in galectin-1-induced human Jurkat cells measured after 16 hrs by caspase-3/7 green fluorescence based analysis
Jurkat [23] = experiment: Inhibition of apoptosis in galectin-3-induced human Jurkat cells measured after 16 hrs by caspase-3/7 green fluorescence based analysis
[24] = Clearance in C57BL/6 mouse at 1 mg/kg, iv measured for 24 hrs by HPLC analysis; type: ADME, organism-based; settings: in vivo
[25] = Volume of distribution at steady state in C57BL/6 mouse at 1 mg/kg, iv measured for 24 hrs by HPLC analysis; type: ADME, organism-based; settings: in vivo, read-out: Vdss
[26] = Tmax in C57BL/6 mouse at 30 mg/kg, po measured for 24 hrs by HPLC analysis; type: ADME, organism-based; settings: in vivo
[27] = Cmax in C57BL/6 mouse at 30 mg/kg, po measured for 24 hrs by HPLC analysis; type: ADME, organism-based; settings: in vivo
[28] = AUC (infinity) in C57BL/6 mouse at 30 mg/kg, po measured for 24 hrs by HPLC analysis; type: ADME, organism-based; settings: in vivo
[29] = Oral bioavailability in C57BL/6 mouse at 30 mg/kg measured for 24 hrs by HPLC analysis; type: ADME, organism-based; settings: in vivo
Lewis lung carcinoma [30] = experiment: Antitumor activity against mouse LL2 cells allografted in syngeneic mouse C57BL/6N assessed as inhibition of tumor growth at 30 mg/kg, po bid administered via gavage measured for 3 to 21 days; type: functional, organism-based; settings: time 3-21 day
Lewis lung carcinoma [31] = experiment: Antitumor activity against mouse LL2 cells allografted in syngeneic mouse C57BL/6N assessed as reduction in tumor volume at 30 mg/kg, po bid administered via gavage measured after 10 days; type: functional, organism-based; settings: time 10.0 day
Galectin-1 [32] = target: T1, Galectin-1; experiment: Binding affinity to human galectin-1 assessed as dissociation constant by fluorescence polarization assay
Galectin-1 [33] = target: T2, Galectin-1; experiment: Binding affinity to mouse galectin-1 assessed as dissociation constant by competitive fluorescence polarization assay

T1 sequence (P09382 whole entry): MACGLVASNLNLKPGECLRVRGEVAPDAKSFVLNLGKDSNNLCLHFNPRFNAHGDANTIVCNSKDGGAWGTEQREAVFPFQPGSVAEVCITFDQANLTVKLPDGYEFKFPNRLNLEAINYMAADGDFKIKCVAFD
T2 sequence (P16045 whole entry): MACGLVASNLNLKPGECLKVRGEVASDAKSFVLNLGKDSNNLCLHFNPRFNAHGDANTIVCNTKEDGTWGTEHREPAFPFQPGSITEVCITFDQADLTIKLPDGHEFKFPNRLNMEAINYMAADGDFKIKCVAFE
T3 sequence (P17931 whole entry): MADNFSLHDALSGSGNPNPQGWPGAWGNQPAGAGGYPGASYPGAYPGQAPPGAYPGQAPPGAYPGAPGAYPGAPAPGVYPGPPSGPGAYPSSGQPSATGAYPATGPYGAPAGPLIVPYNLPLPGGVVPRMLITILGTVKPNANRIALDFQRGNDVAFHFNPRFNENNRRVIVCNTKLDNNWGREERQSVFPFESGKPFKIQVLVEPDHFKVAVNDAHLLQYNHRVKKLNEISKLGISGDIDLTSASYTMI
T7 sequence (P16110 whole entry): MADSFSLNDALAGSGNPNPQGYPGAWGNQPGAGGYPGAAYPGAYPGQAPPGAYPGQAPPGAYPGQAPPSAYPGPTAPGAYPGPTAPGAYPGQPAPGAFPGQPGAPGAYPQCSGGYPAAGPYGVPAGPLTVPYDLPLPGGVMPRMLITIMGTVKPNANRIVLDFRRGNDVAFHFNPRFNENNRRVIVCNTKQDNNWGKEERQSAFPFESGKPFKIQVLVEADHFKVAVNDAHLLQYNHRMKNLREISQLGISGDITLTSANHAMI
T6 sequence (O00182 whole entry): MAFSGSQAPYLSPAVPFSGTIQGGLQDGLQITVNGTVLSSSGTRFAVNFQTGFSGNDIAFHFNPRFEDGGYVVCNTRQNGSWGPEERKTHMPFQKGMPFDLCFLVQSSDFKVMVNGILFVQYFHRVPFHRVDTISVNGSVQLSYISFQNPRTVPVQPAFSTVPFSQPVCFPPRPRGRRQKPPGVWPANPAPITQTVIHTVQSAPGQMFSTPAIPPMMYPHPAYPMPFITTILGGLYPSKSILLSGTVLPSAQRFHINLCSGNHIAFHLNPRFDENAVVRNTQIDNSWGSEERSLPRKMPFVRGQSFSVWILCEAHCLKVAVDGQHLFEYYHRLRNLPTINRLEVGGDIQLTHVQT
Galectin-7, sequence (P47929 whole entry): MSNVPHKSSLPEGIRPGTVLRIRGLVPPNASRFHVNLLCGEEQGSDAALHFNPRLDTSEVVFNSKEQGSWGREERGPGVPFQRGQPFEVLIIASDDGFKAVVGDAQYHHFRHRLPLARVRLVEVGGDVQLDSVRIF

Structure (SMILES): CO[C@@H]1[C@@H](n2cc(-c3csc(N)n3)nn2)[C@@H](O)[C@@H](CO)O[C@@H]1Sc1ccc(Cl)c(Cl)c1
- Kd (Galectin-1 [1]): 112 nM
- Papp A→B at 1.5 h, 10 µM [2]: 3.8 ×10⁻⁶ cm/s
- Papp B→A at 1.5 h, 10 µM [3]: 38 ×10⁻⁶ cm/s
- efflux ratio at 1.5 h, 10 µM [4]: 10
- Kd (Galectin-1 [5]): 99 nM
- hepatocyte CLint at 2 µM [6]: < 1.5 µL/min/1e6 cells
- hepatocyte CLint at 2 µM [7]: < 1.5 µL/min/1e6 cells
- fraction unbound at 5 h, 1 µM [8]: 0.032
- logD at 1 h (physchem): 2.9

Structure (SMILES): COc1nc(-c2cn([C@@H]3[C@@H](O)[C@@H](Sc4cc(Cl)c(F)c(Cl)c4)O[C@H](CO)[C@@H]3O)nn2)cs1
- Kd (Galectin-1 [1]): 1580 nM
- Papp A→B at 1.5 h, 10 µM [2]: 12 ×10⁻⁶ cm/s
- Papp B→A at 1.5 h, 10 µM [3]: 61 ×10⁻⁶ cm/s
- efflux ratio at 1.5 h, 10 µM [4]: 5

Structure (SMILES): CO[C@@H]1[C@@H](n2cc(-c3nccs3)nn2)[C@@H](O)[C@@H](CO)O[C@@H]1Sc1cc(Cl)c(F)c(Cl)c1
- Kd (Galectin-1 [1]): 145 nM
- Papp A→B at 1.5 h, 10 µM [2]: 20 ×10⁻⁶ cm/s
- Papp B→A at 1.5 h, 10 µM [3]: 28 ×10⁻⁶ cm/s
- efflux ratio at 1.5 h, 10 µM [4]: 1.4
- Kd (Galectin-1 [5]): 160 nM
- hepatocyte CLint at 2 µM [6]: 4.4 µL/min/1e6 cells
- hepatocyte CLint at 2 µM [7]: < 1.5 µL/min/1e6 cells
- logD at 1 h (physchem): 3.7

Structure (SMILES): CO[C@@H]1[C@@H](n2cc(-c3csc(O)n3)nn2)[C@@H](O)[C@@H](CO)O[C@@H]1Sc1ccc(Cl)c(Cl)c1
- Papp A→B at 1.5 h, 10 µM [2]: 4 ×10⁻⁶ cm/s
- Papp B→A at 1.5 h, 10 µM [3]: 48 ×10⁻⁶ cm/s
- Kd (Galectin-1 [5]): 72 nM
- hepatocyte CLint at 2 µM [6]: < 1.5 µL/min/1e6 cells
- hepatocyte CLint at 2 µM [7]: < 1.5 µL/min/1e6 cells
- fraction unbound at 5 h, 1 µM [8]: 0.005
- fraction unbound at 5 h, 1 µM [9]: 0.007
- Kd (Galectin-3 [10]): 6000 nM
- Kd (Galectin-4 [11]): 15000 nM
- Kd (Galectin-4 [12]): 460 nM
- Kd (Galectin-7): 92700 nM
- Kd (Galectin-8 [13]): 80600 nM
- Kd (Galectin-8 [14]): 92400 nM
- Kd (Galectin-9 [15]): 18600 nM
- Kd (Galectin-9 [16]): 17500 nM
- Kd (Galectin-1 [17]): 80 nM
- Kd (Galectin-3 [18]): 20500 nM
- Kd (Galectin-1 [19]): 90 nM
- Kd (Galectin-3 [20]): 8200 nM
- Kd (Galectin-3 [21]): 4200 nM
- Activity (A549): 48%
- IC50 (Jurkat [22]): 850 nM
- IC50 (Jurkat [23]): > 8000 nM
- clearance [24]: 3.7 mL/min/kg
- Vd [25]: 0.4 L/kg
- Tmax [26]: 2 h
- Cmax [27]: 19500 ng/mL
- AUC(0-inf) [28]: 148 µg·h/mL
- bioavailability [29]: > 99.9%
- inhibition (Lewis lung carcinoma [30]): Active
- Activity (Lewis lung carcinoma [31]): Active
- logD at 1 h (physchem): 3.2

Structure (SMILES): CO[C@@H]1[C@@H](n2cc(-c3csc(N)n3)nn2)[C@@H](O)[C@@H](CO)O[C@@H]1Sc1cc(Cl)c(F)c(Cl)c1
- Kd (Galectin-1 [1]): 98 nM
- Papp A→B at 1.5 h, 10 µM [2]: 3.5 ×10⁻⁶ cm/s
- Papp B→A at 1.5 h, 10 µM [3]: 39 ×10⁻⁶ cm/s
- efflux ratio at 1.5 h, 10 µM [4]: 11
- Kd (Galectin-1 [5]): 91 nM
- hepatocyte CLint at 2 µM [6]: 4.6 µL/min/1e6 cells
- hepatocyte CLint at 2 µM [7]: 1.6 µL/min/1e6 cells
- logD at 1 h (physchem): 3

Structure (SMILES): CO[C@@H]1[C@@H](n2cc(-c3csc(O)n3)nn2)[C@@H](O)[C@@H](CO)O[C@@H]1Sc1cc(Cl)c(F)c(Cl)c1
- Kd (Galectin-1 [1]): 34 nM
- Papp A→B at 1.5 h, 10 µM [2]: 0.9 ×10⁻⁶ cm/s
- Papp B→A at 1.5 h, 10 µM [3]: 57 ×10⁻⁶ cm/s
- efflux ratio at 1.5 h, 10 µM [4]: 63
- Kd (Galectin-1 [5]): 43 nM
- hepatocyte CLint at 2 µM [6]: 2.5 µL/min/1e6 cells
- hepatocyte CLint at 2 µM [7]: < 1.5 µL/min/1e6 cells
- logD at 1 h (physchem): 3.3

Structure (SMILES): O=C(N[C@H]1[C@@H](O)[C@@H](CO)O[C@@H](S[C@@H]2O[C@H](CO)[C@H](O)[C@H](n3cc(-c4csc(O)n4)nn3)[C@H]2O)[C@@H]1O)c1ccc2c(c1)C(=O)OC21c2ccc(O)cc2Oc2cc(O)ccc21
- Kd (Galectin-1 [32]): 20 nM
- Kd (Galectin-1 [33]): 29 nM

Structure (SMILES): OC[C@H]1O[C@H](Sc2ccc(Cl)c(Cl)c2)[C@H](O)[C@@H](n2cc(-c3csc(O)n3)nn2)[C@H]1O
- Kd (Galectin-1 [1]): 337 nM
- Papp A→B at 1.5 h, 10 µM [2]: < 1.5 ×10⁻⁶ cm/s
- Papp B→A at 1.5 h, 10 µM [3]: 35 ×10⁻⁶ cm/s
- efflux ratio at 1.5 h, 10 µM [4]: > 23
